According to BindingDB's records for doi:10.1093/toxsci/kfq269 (Amgen, 2010):

Target: Bile salt export pump (Homo sapiens, UniProt O95342)
Assay: ChEBML_1661982
Protocol: Inhibition of human BSEP expressed in fall armyworm sf9 cell plasma membrane vesicles assessed as reduction in vesicle-associated [3H]-taurocholate transport preincubated for 10 mins prior to ATP addition measured after 15 mins in presence of [3H]-taurocholate by topcount based membrane vesicle transport assay

O=C1OC2(c3ccc(O)cc3Oc3cc(O)ccc32)c2ccccc21
IC50: > 135 µM
